Consider ten compounds from US4427689A, “Clavulanic acid 9-deoxy-9-thia derivatives their preparation and use” (Beecham Group Limited, priority 1978, dated 1984).

One assay has as its system Kleb. aerogenes E70. In words: MIC of ampicillin alone or in presence of compound (synergistic activity, Demonstration 2), Kleb. aerogenes E70. In kind it is cell-based. The conditions noted are these: Klebsiella aerogenes. The protocol: (§1) The MIC of ampicillin alone or in the presence of certain compounds of the invention was determined for certain Gram positive and Gram negative bacteria.

The test system of another assay is Staph. aureus Russell. As to the kind of experiment: MIC of ampicillin alone or in presence of compound (synergistic activity, Demonstration 2), Staph. aureus Russell. In kind it is cell-based. To be noted: Staphylococcus aureus. The protocol: as §1
For the next assay, the system named is E. coli JT39. As to the kind of experiment: MIC of ampicillin alone or in presence of compound (synergistic activity, Demonstration 2), E. coli JT39. To be noted: Escherichia coli. In kind it is cell-based. The protocol: as §1
A further assay deals with Staph. Russell. As to the kind of experiment: MIC of ampicillin alone or in presence of compound (synergistic activity, Demonstration 1), Staph. Russell. To be noted: Staphylococcus aureus. The assay is classed as cell-based. The protocol:
(§2) The minimum inhibitory concentration (MIC) of ampicillin alone or in the presence of certain compounds of the invention was determined for several strains of bacteria.

A further assay deals with E.coli JT39. As to the kind of experiment: MIC of ampicillin alone or in presence of compound (synergistic activity, Demonstration 1), E.coli JT39. In kind it is cell-based. The conditions noted are these: Escherichia coli. The protocol:
as §2

For a further assay, the system named is Proteus C889. As to the kind of experiment: MIC of ampicillin alone or in presence of compound (synergistic activity, Demonstration 1), Proteus C889. In kind it is cell-based. The protocol: as §2
Another assay concerns Klebsiella E70. In words: MIC of ampicillin alone or in presence of compound (synergistic activity, Demonstration 1), Klebsiella E70. The conditions noted are these: E70, compound alone. The assay is classed as cell-based, Kleb. aerogenes. The protocol:
as §2

In another assay the test system is E.coli E96. In words: In-vivo effect, CD50 in mice infected intraperitoneally with E.coli E96. The conditions noted are these: Escherichia coli, E96, sc, subcutaneous at 1 and 5 hours post infection, no synergist, read-out: CD50 of amoxycillin alone. The protocol: The CD50 in mice infected intraperitoneally with E.coli E96 was determined. Amoxycillin and the synergists were dosed subcutaneously at 1 and 5 hours post infection. The synergists were used at 2 mg/kg.

[1] abbreviates: compound alone, read-out: MIC, compound alone.
[2] abbreviates: compound alone, E. coli JT39, read-out: MIC, compound alone.
Setting [3] is: compound conc. 0 μg/ml, read-out: MIC Ampicillin (alone).
Setting [4] is: ampicillin alone, read-out: MIC of ampicillin alone.

Read-outs that look alike come from different tables or passages of the source. Some results are limits rather than exact numbers.

By MIC is commonly meant the lowest concentration found to suppress growth. On to `O=C(O)[C@H]1/C(=C/CS(=O)(=O)CN2CCCC2=O)O[C@@H]2CC(=O)N21` [Example 10, Sodium 9-(2-oxopyrrolidin-1-ylmethylsulphonyl)-9-deoxyclavulanate], for which the MIC with Kleb. aerogenes E70 (setting [1]) came out at 62.5 µg/mL; in the assay on Staph. aureus Russell (setting [1]) it was 31.2 µg/mL; with E. coli JT39 (setting [1]) it was 62.5 µg/mL.
As for `O=C1CC(SC/C=C2\O[C@@H]3CC(=O)N3[C@H]2C(=O)O)N1` (some centres unmarked) [Example 2, Sodium 9-deoxy-9-thio-(azetidin-2'-on-4'-yl) clavulanate], the MIC in the assay with Staph. Russell (setting [1]) came to 31.2 µg/mL; with E.coli JT39 (setting [2]), 31.2 µg/mL; with Kleb. aerogenes E70 (setting [1]) it was 16 µg/mL; in the assay on Proteus C889 (setting [1]) it was 15 µg/mL; in the assay with Staph. aureus Russell (setting [1]), 31.2 µg/mL; in the assay on Klebsiella E70, 15 µg/mL.
Consider `CC(=O)NCS(=O)(=O)C/C=C1\O[C@@H]2CC(=O)N2[C@H]1C(=O)O` [Example 22, Sodium 9-(acetamidomethylsuphonyl)-9-deoxyclavulanate], for which the MIC with Kleb. aerogenes E70 (setting [1]) worked out at 62.5 µg/mL; with Staph. aureus Russell (setting [1]), 62.5 µg/mL; in the assay on E. coli JT39 (setting [1]), 31.2 µg/mL.
For the compound `CC(NC=O)SC/C=C1\O[C@@H]2CC(=O)N2[C@H]1C(=O)O` (some centres unmarked) [Example 13, Sodium 9-(1-formamidoethylthio)-9-deoxyclavulanate], the MIC in the assay on Kleb. aerogenes E70 (setting [1]) was 62.5 µg/mL; in the assay on Staph. aureus Russell (setting [1]), 16 µg/mL; in the assay on E. coli JT39 (setting [1]) it was 125 µg/mL.
Consider `CC(=O)NCSC/C=C1\O[C@@H]2CC(=O)N2[C@H]1C(=O)O` [Example 20, Sodium 9-(acetamidomethylthio)-9-deoxyclavulanate], for which the values for the MIC with Kleb. aerogenes E70 (setting [1]), in the assay on Staph. aureus Russell (setting [1]) and in the assay on E. coli JT39 (setting [1]) were 62.5 µg/mL, 4 µg/mL and 62.5 µg/mL, respectively.
Regarding `O=C(NCSC/C=C1\O[C@@H]2CC(=O)N2[C@H]1C(=O)O)c1ccccc1` [Example 6, Sodium 9-deoxy-9-thio (N-benzoylaminomethyl) clavulanate], the MIC was 16 µg/mL with Staph. Russell (setting [1]); 250 µg/mL in the assay on E.coli JT39 (setting [2]); 500 µg/mL with Kleb. aerogenes E70 (setting [1]); 125 µg/mL with Proteus C889 (setting [1]); 16 µg/mL in the assay with Staph. aureus Russell (setting [1]); 500 µg/mL in the assay with Klebsiella E70.
Consider `CC1(C)S[C@@H]2[C@H](NC(=O)[C@H](N)c3ccc(O)cc3)C(=O)N2[C@H]1C(=O)O` [Amoxycillin, amoxycillin], for which, in the assay on E.coli E96, the ED50 is greater than 1000 mg/kg.
Turning to `O=C(O)[C@H]1/C(=C/CSCN2CCCC2=O)O[C@@H]2CC(=O)N21` [Example 8, Sodium 9-(2-oxopyrrolidin-1-ylmethylthio)-9-deoxyclavulate], the figures for the MIC with Kleb. aerogenes E70 (setting [1]), with Staph. aureus Russell (setting [1]) and in the assay with E. coli JT39 (setting [1]) were 250 µg/mL, 62.5 µg/mL and 250 µg/mL, respectively.
Consider `CC1(C)S[C@@H]2[C@H](NC(=O)[C@H](N)c3ccccc3)C(=O)N2[C@H]1C(=O)O` [Ampicillin, ampicillin, reference compound], for which the MIC with Staph. Russell (setting [3]) is 500 µg/mL; with E.coli JT39 (compound conc. 0 μg/ml, E.coli JT39, read-out: MIC Ampicillin (alone)), 2000 µg/mL; with Kleb. aerogenes E70 (setting [4]), 500 to 2000 µg/mL; in the assay on Proteus C889 (setting [3]), greater than 2000 µg/mL; in the assay with Staph. aureus Russell (setting [4]), 125 to 500 µg/mL; with E. coli JT39 (setting [4]), no less than 2000 µg/mL. Moreover, the “MIC Ampicillin (alone)” value in the assay on Proteus C889 (compound conc. 0 μg/ml) was found to be 1000 µg/mL.
Consider `CC(=O)NC[S+]([O-])C/C=C1\O[C@@H]2CC(=O)N2[C@H]1C(=O)O` (some centres unmarked) [Example 21, Sodium 9-(acetamidomethylsulphinyl)-9-deoxyclavulanate], for which the MIC in the assay on Kleb. aerogenes E70 (setting [1]) stood at 125 µg/mL; with Staph. aureus Russell (setting [1]), 125 µg/mL; in the assay on E. coli JT39 (setting [1]), 62.5 µg/mL.
